Assay results: ChEMBL document CHEMBL3525927, “Measurement of unbound drug exposure in brain: modeling of pH partitioning explains diverging results between the brain slice and brain homogenate methods” (Drug Metab Dispos, 2011); call rule not given here

Key:
in vitro = details: Sprague-Dawley, rat, brain homogenate
Brain [1] = details: rat, 5 h, 0.1 µM
Brain [2] = assay: Drug uptake in Sprague-Dawley rat brain slices in presence of 50 pM to 50 nM of monensin; type: ADME, tissue-based
Brain [3] = assay: Drug uptake in Sprague-Dawley rat brain slices in presence of 50 nM of monensin; type: ADME, tissue-based
in vivo = details: Sprague-Dawley, rat
Brain [4] = assay: Unbound volume of distribution in Sprague-Dawley rat brain slices at 100 nM after 5 hrs in presence of 10 uM of cyclosporine; type: ADME, tissue-based; details: 0.1 µM
[5] = Dissociation constant, pKa of the basic compound by capillary electrophoresis-mass spectrometry analysis; type: physicochemical

Description for physchem: Dissociation constant, pKa of the acidic compound by capillary electrophoresis-mass spectrometry analysis

Structure (SMILES) | fraction unbound at 5 µM (in vitro) | Vdu (Brain [1]) [mL/g] | Kp uu (in vivo; brain and plasma) | pKa (physchem) | Vdu (Brain [1]; in vivo) [mL/g] | Kp uu (in vivo; brain) | also measured
CC(C)NCC(O)COc1cccc2ccccc12 (stereo not given) [PROPRANOLOL] | 0.029 | 112 |  |  |  |  | Compound recovery (Brain [2]): Not Active
CN(C)C(=N)N=C(N)N [METFORMIN] | 0.95 | 10 | 9.51 |  |  |  | Compound recovery (Brain [3]): Active
CN(C)C(=O)C(CCN1CCC(O)(c2ccc(Cl)cc2)CC1)(c1ccccc1)c1ccccc1 [LOPERAMIDE] | 0.008 | 370 | 2.95 | 9 |  |  | Unbound brain volume of distribution (Brain [4]): Active
NCC(CC(=O)O)c1ccc(Cl)cc1 (stereo not given) [BACLOFEN] | 0.98 | 1.7 | 1.62 | 9.7 |  |  | pKa [5]: 3.7
CSc1ccc2c(c1)N(CCC1CCCCN1C)c1ccccc1S2 (stereo not given) [THIORIDAZINE] | 0.00067 |  |  | 8.9 | 3333 | 2.24 | 
O=C(O)Cc1ccccc1Nc1c(Cl)cccc1Cl [DICLOFENAC] | 0.041 | 15 | 0.61 |  |  |  | 
Cc1ncc2n1-c1ccc(Cl)cc1C(c1ccccc1F)=NC2 [MIDAZOLAM] | 0.026 | 29 | 0.74 | 5.4 |  |  | 
CN1CC[C@]23c4c5ccc(O)c4O[C@H]2C(=O)CC[C@@]3(O)[C@H]1C5 [OXYMORPHONE] | 0.75 | 4 | 2.97 | 8.7 |  |  | 
CCCC(C)C1(CC)C(=O)NC(=S)NC1=O (stereo not given) [THIOPENTAL] |  |  |  |  |  |  | pKa [5]: 7.6
COc1ccc2c(c1)c(CC(=O)O)c(C)n2C(=O)c1ccc(Cl)cc1 [INDOMETHACIN] | 0.044 |  |  |  | 14 | 0.6 | Compound recovery (Brain [3]): Active
C=C[C@H]1C[N@@]2CC[C@H]1C[C@@H]2[C@@H](O)c1ccnc2ccc(OC)cc12 [QUINIDINE] |  |  |  |  |  | 3.45 | 
Clc1cccc(Cl)c1N=C1NCCN1 [CLONIDINE] | 0.42 |  |  | 8.3 | 5.9 | 2.47 | 
C=CCOc1ccccc1OCC(O)CNC(C)C (stereo not given) [OXPRENOLOL] | 0.28 |  |  | 9.7 | 11.8 | 3.25 | 
CC(=O)O[C@H]1C(=O)[C@@]2(C)[C@H]([C@H](OC(=O)c3ccccc3)[C@]3(O)C[C@H](OC(=O)[C@H](O)[C@@H](NC(=O)c4ccccc4)c4ccccc4)C(C)=C1C3(C)C)[C@]1(OC(C)=O)CO[C@@H]1C[C@@H]2O [PACLITAXEL] | 0.012 | 769 | 9.03 |  |  |  | 
O=C1OC2(c3ccc(O)cc3Oc3cc(O)ccc32)c2ccccc21 [FLUORESCEIN] | 0.42 |  | 0.74 |  | 1.8 |  | 
COc1ccc2c3c1O[C@H]1[C@@H](O)C=C[C@H]4[C@@H](C2)N(C)CC[C@@]341 [CODEINE] | 0.62 |  |  | 8.4 | 3.2 | 1.99 | 
CC1(C)O[C@@H]2[C@@H](CO[C@@]3(COS(N)(=O)=O)OC(C)(C)O[C@@H]23)O1 [TOPIRAMATE] | 0.61 | 3.2 | 1.96 |  |  |  | 
Cc1nnc2n1-c1ccc(Cl)cc1C(c1ccccc1)=NC2 [ALPRAZOLAM] | 0.16 | 6.5 |  |  |  |  | 
CC(C)(C)NCC(O)COc1cccc2c1CC(O)C(O)C2 (stereo not given) [NADOLOL] |  |  |  | 9.9 |  |  | 
NCC1(CC(=O)O)CCCCC1 [GABAPENTIN] |  | 4.6 | 4.55 | 10.5 |  |  | pKa [5]: 3.9
CN(Cc1cnc2nc(N)nc(N)c2n1)c1ccc(C(=O)N[C@@H](CCC(=O)O)C(=O)O)cc1 [METHOTREXATE] | 0.89 |  |  |  | 0.68 | 0.61 | 
CO[C@H]1/C=C/O[C@@]2(C)Oc3c(C)c(O)c4c(O)c(c(/C=N/N5CCN(C)CC5)c(O)c4c3C2=O)NC(=O)/C(C)=C\C=C\[C@H](C)[C@H](O)[C@@H](C)[C@@H](O)[C@@H](C)[C@H](OC(C)=O)[C@@H]1C [RIFAMPIN] |  |  |  | 7.6 |  |  | pKa [5]: 2.2
O=C(O)c1ccccc1O [SALICYLIC ACID] | 0.63 |  |  |  | 1 | 0.62 | 
C=C[C@H]1C[N@@]2CC[C@H]1C[C@H]2[C@H](O)c1ccnc2ccc(OC)cc12 [QUININE] |  |  |  |  |  | 3.51 | 
